Converted amounts (≈) assume the structure as drawn.

In patent US7524823B2, “Macrolides” (Basilea Pharmaceutica AG, priority 2005, dated 2009) one finds MIC data, which are given here for 5 compounds.

Format in all cases: cell-based
Experiment [1] deals with Haemophilus influenzae 12214. Kind of experiment: MIC by broth microdilution (CAMHB + 5% Fildes enrichment, NCCLS). To be noted: code G: Haemophilus influenzae 12214. Here is the method: (§1) MIC values for non-anaerobes were obtained by broth microdilution using CAMHB (BBL) according to NCCLS guidelines (National Committee for Clinical Laboratory Standards. Methods for dilution antimicrobial susceptibility tests for bacteria that grow aerobically, 5th ed. Approved standard M7-A6. NCCLS, Wayne, Pa., 2003). Drugs were dissolved in DMSO prior to dispensing into 96-well microtitre plates; the concentration of DMSO in assay wells never exceeded 2% (v/v). CAMHB was supplemented with 5% (v/v) horse serum (Sigma, cat. no. H-1270) in lieu of laked horse blood for cultivation of Streptococcus pneumoniae, and with 5% (v/v) Fildes enrichment (BBL, cat. no. 220810) supernate in lieu of Haemophilus Test Medium and additives for cultivation of Haemophilus influenzae (Pankuch G A, Hoellman D B, Lin G, Bajaksouzian S, Jacobs M R, Appelbaum P C. Activity of HMR 3647 compared to those of five agents against Haemophilus influenzae and Moraxella catarrhalis by MIC determination and time-kill assay. Antimicrob. Agents Chemother. November 1998; 42(11): 3032-4). Activities expressed as the minimal inhibitory concentrations (MICs) (μg/ml) are given in the following Table 3, and the microorganisms used for testing are listed in Table 2 below.
(Broth dilution looks for growth in wells or tubes with falling amounts of substance.)

Experiment [2] has as its system Haemophilus influenzae QK50. The experiment is described as above. To be noted: code H: Haemophilus influenzae QK50. As for the experimental part:
as §1

In experiment [3] the test system is Staphylococcus aureus ATCC 29213. As to the kind of experiment: MIC by broth microdilution (CAMHB, NCCLS). To be noted: code A: Staphylococcus aureus ATCC 29213. Here is the method: as §1
For experiment [4], the system named is Staphylococcus aureus 1086. Kind of experiment: MIC by broth microdilution (CAMHB, NCCLS). The settings on record: code B: Staphylococcus aureus 1086. Here is the method: as §1
The subject of experiment [5] is Escherichia coli ATCC 25922. As to the kind of experiment: MIC by broth microdilution (CAMHB, NCCLS). To be noted: code C: Escherichia coli ATCC 25922. Here is the method:
as §1

Experiment [6] has as its system Streptococcus pneumoniae 1/1. Kind of experiment: MIC by broth microdilution (CAMHB + 5% horse serum, NCCLS). To be noted: code D: Streptococcus pneumoniae 1/1. Here is the method: as §1
In experiment [7] the test system is Streptococcus pneumoniae Tupelo. Described as above. To be noted: code F: Streptococcus pneumoniae Tupelo. As for the experimental part:
as §1

The subject of experiment [8] is Streptococcus pneumoniae SL199T. Described as above. The settings on record: code E: Streptococcus pneumoniae SL199T. Here is the method:
as §1

Experiment [9] concerns Propionibacterium acnes SW101T. As to the kind of experiment: MIC by anaerobic broth microdilution (WCB, NCCLS). To be noted: code K: Propionibacterium acnes SW101T, 35-37° C., 48 h. Here is the method:
(§2) MIC values towards strains of propionibacteria were obtained by broth microdilution using WCB (Anaerobe Broth MIC, Difco) according to NCCLS guidelines (National Committee for Clinical Laboratory Standards. Methods for anti-microbial susceptibility testing of anaerobic bacteria, 5th ed.; approved standard. NCCLS publication no. M11-A5. NCCLS, Wayne, Pa., 2001). Microtitre plates were loaded into 7-L GENbox anaerobic incubation jars (BioMérieux, cat. no. 96 128) fitted with anaerobic atmosphere generators (BioMérieux, cat. no. 96 124) and a Dry Anaerobic Indicator Strip (BBL, cat. no. 271051). Under these conditions, an O2 concentration <0.1% was achieved by 2.5 h, and a CO2 concentration >15% by 24 h. MIC values were read after incubation at 35-37° C. for 48 h (Table 3).

In experiment [10] the test system is Propionibacterium acnes EG7NS. Kind of experiment: MIC by anaerobic broth microdilution (WCB, NCCLS). To be noted: code I: Propionibacterium acnes EG7NS; anaerobic, 35-37° C., 48 h. Here is the method: as §2

Consider `CC[C@H]1OC(=O)[C@H](C)[C@@H](O[C@H]2C[C@@](C)(OC)[C@@H](O)[C@H](C)O2)[C@H](C)[C@@H](O[C@@H]2O[C@H](C)C[C@H](N(C)C)[C@H]2O)[C@](C)(OC)C[C@@H](C)C(=O)[C@H](C)[C@H]2[C@H](SCCCN3C(=O)c4ccccc4C3=O)C(=O)O[C@@]21C` [Example 15], for which the MIC is 4 µg/mL in experiment [1]; 4 µg/mL in experiment [2]; 1 µg/mL (≈ 1.01 µM) in experiment [3]; “>=32 μg/ml” in [4]; above 32 µg/mL in [5]; “<=0.06 μg/ml” in [6]. Also, the MIC in [7] is 2 µg/mL; in experiment [8], 1 µg/mL; in experiment [9], 16 µg/mL (≈ 16.1 µM); in [10], “<=0.06 μg/ml”.
On to `CC[C@H]1OC(=O)[C@H](C)[C@@H](O[C@H]2C[C@@](C)(OC)[C@@H](O)[C@H](C)O2)[C@H](C)[C@@H](O[C@@H]2O[C@H](C)C[C@H](N(C)C)[C@H]2O)[C@](C)(OC)C[C@@H](C)C(=O)[C@H](C)[C@H]2[C@H](SCCCn3cnc4c(N)ncnc43)C(=O)O[C@@]21C` [Example 16], for which the MIC in experiment [1] was 2 µg/mL; in experiment [2] it was 2 µg/mL; in [3], 1 µg/mL (≈ 1.02 µM); in [4], above 32 µg/mL; in experiment [5], “>=32 μg/ml”; in experiment [6], “<=0.06 μg/ml”. The MIC in experiment [7] stood at 0.5 µg/mL; in experiment [8], 0.125 µg/mL; in experiment [9] it was 1 µg/mL (≈ 1.02 µM); in [10], 0.125 µg/mL (≈ 0.128 µM).
Take `CC[C@H]1OC(=O)[C@H](C)[C@@H](O[C@H]2C[C@@](C)(OC)[C@@H](O)[C@H](C)O2)[C@H](C)[C@@H](O[C@@H]2O[C@H](C)C[C@H](N(C)C)[C@H]2O)[C@](C)(OC)C[C@@H](C)C(=O)[C@H](C)[C@H]2[C@H](SCCn3ccc(-c4cccnc4)n3)C(=O)O[C@@]21C` [Example 17]: the MIC in [1] was 4 µg/mL; in [2] it was 4 µg/mL; in [3], 1 µg/mL (≈ 1.03 µM); in [4] it was above 32 µg/mL; in [5] it was above 32 µg/mL; in experiment [6], “<=0.06 μg/ml”. Besides, the MIC in [7] is 1 µg/mL; in experiment [8], 0.5 µg/mL; in [9], 16 µg/mL (≈ 16.4 µM); in experiment [10], “<=0.06 μg/ml”.
Regarding `CC[C@H]1OC(=O)[C@H](C)[C@@H](O[C@H]2C[C@@](C)(OC)[C@@H](O)[C@H](C)O2)[C@H](C)[C@@H](O[C@@H]2O[C@H](C)C[C@H](N(C)C)[C@H]2O)[C@](C)(OC)C[C@@H](C)C(=O)[C@H](C)[C@H]2[C@H](SCCn3cncn3)C(=O)O[C@@]21C` [Example 18], the MIC in experiment [1] is 2 µg/mL; in [2], 2 µg/mL; in experiment [3], 1 µg/mL (≈ 1.11 µM); in experiment [4] it was “>=32 μg/ml”; in experiment [5], 32 µg/mL (≈ 35.6 µM); in experiment [6], “<=0.06 μg/ml”. The MIC in experiment [7] is 4 µg/mL; in [8], 2 µg/mL; in [9] it was above 32 µg/mL; in experiment [10], “<=0.06 μg/ml”.
Take `CC[C@H]1OC(=O)[C@H](C)[C@@H](O[C@H]2C[C@@](C)(OC)[C@@H](O)[C@H](C)O2)[C@H](C)[C@@H](O[C@@H]2O[C@H](C)C[C@H](N(C)C)[C@H]2O)[C@](C)(OC)C[C@@H](C)C(=O)[C@H](C)[C@H]2[C@H](SCCn3cnc4ccccc43)C(=O)O[C@@]21C` [Example 19]: the MIC was 2 µg/mL in [1]; 2 µg/mL in experiment [2]; 1 µg/mL (≈ 1.05 µM) in experiment [3]; above 32 µg/mL in [4]; above 32 µg/mL in experiment [5]; “<=0.06 μg/ml” in experiment [6]. Also, the MIC is 1 µg/mL in [7], 0.5 µg/mL in experiment [8], 4 µg/mL (≈ 4.22 µM) in experiment [9] and “<=0.06 μg/ml” in experiment [10].
